Measurements published in US20250214977A1, “STAT6 INHIBITORS AND USES THEREOF” (Kymera Therapeutics, Inc., priority 2024, published 2025).

system: Phosphorylation of STAT6 in human A549 cells; assay: Phosphorylated STAT6 (pSTAT6) flow cytometry assay in human A549 cells; format: cell-based; details: read-out: STAT6 IL4 pSTAT6 assay in A549 cells: Average IC50
Source text: Example 3. Phosphorylated STAT6 (pSTAT6) Flow Cytometry Assay in Human A549 Cells
Phosphorylation of STAT6 in human A549 cells was quantitatively measured using flow cytometry technology.

Row | Structure (SMILES) | IC50 [µM]
1 | COc1ccccc1-c1cc(C2=CCCN(C(=O)CCn3cccn3)C2)c(F)c2[nH]c(C(=O)N3CCN(c4cc5cc[nH]c5nc4C#N)CC3)cc12 [Example I-494] | > 100
2 | COc1cc(F)cnc1N1CCN(C(=O)c2cc3c(-c4cnn(C)c4-c4ccccc4)cc(C4=CCCN(C(=O)CCn5ccnn5)C4)c(F)c3[nH]2)CC1 [Example I-621] | < 0.1
3 | COc1cc(F)cnc1N1CCN(C(=O)c2cc3c(-c4ccccc4CN4CCOCC4)cc(C4=CCCN(C(=O)CCn5ccnn5)C4)c(F)c3[nH]2)CC1 [Example I-1123] | < 0.1
4 | CN(C)C(=O)c1cc2cc(C3=CCCN(C(=O)C(Cn4ccnn4)c4cccc(CO)c4)C3)ccc2o1 (stereo not drawn) [Example I-832] | 1 to 10
5 | COc1cccnc1N1CCN(C(=O)c2cc3ccc(C4=CCCN(C(=O)CCn5ccnn5)C4)c(F)c3[nH]2)CC1 [Example I-338] | < 0.1
6 | COc1ccc(NC(=O)c2cc3c(-c4ccccc4OC)cc(C4=CCCN(C(=O)CCn5ccnn5)C4)c(F)c3[nH]2)cn1 [Example I-979] | 0.1 to 1
7 | CN(C)C(=O)c1cc2cc(C3=CCCN(C(=O)CCn4ccnn4)C3)cc(-c3cc(F)ccc3C(F)(F)F)c2o1 [Example I-1081] | < 0.1
8 | COc1cccnc1N1CCN(C(=O)c2cc3c(N4CCN(C)CC4)cc(C4=CCCN(C(=O)CCn5ccnn5)C4)c(F)c3[nH]2)CC1 [Example I-557] | < 0.1
9 | COc1cc(F)cnc1N1CCN(C(=O)c2cc3c(C4=CC(=O)CC4)cc(C4=CCCN(C(=O)CCn5ccnn5)C4)c(F)c3[nH]2)CC1 [Example I-1116] | < 0.1
10 | COc1ccncc1-c1cc(C2=CCCN(C(=O)CCn3ccnn3)C2)c(F)c2[nH]c(C(=O)N3CCN(c4ncc(C(F)(F)F)cc4OC)CC3)cc12 [Example I-445] | < 0.1
11 | COc1ccncc1-c1cc(C2CN(C(=O)CCn3ccnn3)CC(F)(F)C2)c(F)c2[nH]c(C(=O)N3CCN(c4ncc(F)cc4OC)CC3)cc12 (stereo not drawn) [Example I-513] | < 0.1
12 | COc1ccccc1-c1cc(C2=CCCN(C(=O)CCn3ccnn3)C2)c(F)c2[nH]c(C(=O)N3CCN(c4cc(F)c(F)c5ccc(C)nc45)CC3)cc12 [Example I-907] | < 0.1
13 | COc1cc(F)cnc1N1CCN(C(=O)c2cc3c(-c4ccc(C(F)F)cc4)cc(C4=CCCN(C(=O)CCn5ccnn5)C4)c(F)c3[nH]2)CC1 [Example I-1160] | < 0.1
14 | CN(C)C(=O)c1cc2cc(C3=CCCN(C(=O)CCn4ccnn4)C3)cc(NC3CCCC3)c2o1 [Example I-874] | 0.1 to 1
15 | CCc1nccn1-c1cc(C2=CCCN(C(=O)CCn3ccnn3)C2)c(F)c2[nH]c(C(=O)N3CCN(c4ncccc4OC)CC3)cc12 [Example I-692] | > 100
16 | COc1ccccc1-c1cc(C2=CCCN(C(=O)CCn3ccnn3)C2)c(F)c2[nH]c(C(=O)N3CCC(n4c(=O)[nH]c5ncccc54)CC3)cc12 [Example I-981] | 0.1 to 1
17 | COc1cc(F)cnc1N1CCN(C(=O)c2cc3c(-c4ccnc(F)c4OC)cc(C4=CCCN(C(=O)CCn5ccnn5)C4)c(F)c3[nH]2)CC1 [Example I-656] | < 0.1
18 | COc1ccccc1-c1cc(C2=CCCN(C(=O)CCn3ccnn3)C2)c(F)c2[nH]c(C(=O)N(C)Cc3ccc4c(c3)OCO4)cc12 [Example I-976] | < 0.1
19 | COc1cccnc1N1CCN(C(=O)c2cc3c(-c4cccnc4OC)cc(C4=CCCN(C(=O)CCn5ccnn5)C4)c(F)c3[nH]2)CC1 [Example I-410] | > 100
20 | CC#Cc1cc(-c2cc(C3=CCCN(C(=O)CCn4ccnn4)C3)c(F)c3[nH]c(C(=O)N4CCN(c5ncc(F)cc5OC)CC4)cc23)ccn1 [Example I-634] | < 0.1
21 | COc1cc(F)cnc1N1CCN(C(=O)c2cc3c(-c4ccc(-c5ccccn5)cc4)cc(C4=CCCN(C(=O)CCn5ccnn5)C4)c(F)c3[nH]2)CC1 [Example I-1120] | < 0.1
22 | COc1ccccc1-c1cc(C2CCCN(C(=O)CCn3ccnn3)C2)c(F)c2[nH]c(C(=O)N3CCN(c4ncccc4OC4CC4)CC3)cc12 (stereo not drawn) [Example I-364] | < 0.1
23 | COc1ccccc1-c1cc(C2=CCCN(C(=O)CCn3ccnn3)C2)c(F)c2[nH]c(C(=O)N3CCN(c4ccc(F)cc4OC)CC3)cc12 [Example I-431] | < 0.1
24 | CN(C)C(=O)c1cc2ccc(C3=CCCN(C(=O)CCc4ccno4)C3)cc2[nH]1 [Example I-829] | 0.1 to 1
25 | COc1ccccc1-c1cc(C2=CCCN(C(=O)CCn3ccnn3)C2)c(F)c2[nH]c(C(=O)N3CCN(c4ccc(C(F)(F)F)cc4F)CC3)cc12 [Example I-932] | 0.1 to 1
26 | COc1ccccc1-c1cc(C2=CCCN(C(=O)CCn3ccnn3)C2)c(F)c2[nH]c(C(=O)N3CCN(c4ccc(=O)[nH]c4C)CC3)cc12 [Example I-1022] | < 0.1
27 | COc1cnc(N2CCN(C(=O)c3cc4c(-c5ccncc5OC)cc(C5=CCCN(C(=O)CCn6ccnn6)C5)c(F)c4[nH]3)CC2)c(OC)c1 [Example I-436] | < 0.1

More lines, now with the values ahead:

Row | IC50 [µM] | Structure (SMILES)
28 | < 0.1 | COc1ccccc1-c1cc(C2=CCCN(C(=O)CCn3ccnn3)C2)c(F)c2[nH]c(C(=O)N3CCN(c4cc(C)c(=O)n(C)c4)CC3)cc12 [Example I-1023]
29 | < 0.1 | CCc1cc(C)ncc1-c1cc(C2=CCCN(C(=O)CCn3cccn3)C2)c(F)c2[nH]c(C(=O)N3CCN(c4nc(C)c(F)cc4OC)CC3)cc12 [Example I-738]
30 | 0.1 to 1 | CC(=O)N1CCC=C(c2cc(-c3ccc(C)cc3O)c3cc(C(=O)N(C)C)[nH]c3c2F)C1 [Example I-886]
31 | 0.1 to 1 | COc1ccccc1-c1cc(C2=CCCN(C(=O)CCn3ccnn3)C2)c(F)c2[nH]c(C(=O)N3CCN(c4ccc(C)cc4)CC3)cc12 [Example I-860]
32 | 0.1 to 1 | COc1cc(F)cnc1N1CCN(C(=O)c2cc3c(-c4ccc(F)c(C)c4)cc(C4=CCCN(C(=O)CCn5ccnn5)C4)c(F)c3[nH]2)CC1 [Example I-676]
33 | < 0.1 | CCOCc1cc(F)ccc1-c1cc(C2=CCCN(C(=O)CCn3ccnn3)C2)c(F)c2[nH]c(C(=O)N3CCN(c4ncc(F)cc4OC)CC3)cc12 [Example I-1125]
34 | < 0.1 | CNc1ccc(-c2cc(C3=CCCN(C(=O)CCn4ccnn4)C3)c(F)c3[nH]c(C(=O)N(C)C)cc23)c(OC)c1 [Example I-1059]
35 | < 0.1 | COc1ccccc1-c1cc(C2=CCCN(C(=O)CCn3ccnn3)C2)c(F)c2[nH]c(C(=O)N3CCN(Cc4c(C)nn(C)c4C)CC3)cc12 [Example I-1182]
36 | > 100 | CCn1ncc2c1CN(C(=O)c1cc3c(-c4ccc(C5CC5)nc4C)cc(C4=CCCN(C(=O)CCn5ccnn5)C4)c(F)c3[nH]1)C2 [Example I-762]
37 | 0.1 to 1 | CCc1ccc(-c2cc(C(=O)N3Cc4cnn(CC)c4C3)cc3cc(C4=CCCN(C(C)=O)C4)n(CC4CC4)c23)c(C)n1 [Example I-1046]
38 | 10 to 100 | CCc1cnccc1-c1cc(C2=CCCN(C(C)=O)C2)c(F)c2[nH]c(C(=O)N3Cc4cnn(C)c4C3)cc12 [Example I-705]
39 | < 0.1 | CCn1nccc1-c1cc(C(=O)N2Cc3cnn(CC)c3C2)cc2cc(C3=CCCN(C(=O)CCn4ccnn4)C3)n(CC3CC3)c12 [Example I-544]
40 | 10 to 100 | COc1ccccc1-c1cc(C(=O)N2CCN(c3ncc(F)cc3OC)CC2)cc2cc(C3=CCCN(C(=O)CCn4ccnn4)C3)n(CC3CC3)c12 [Example I-506]
41 | < 0.1 | COc1ccccc1-c1cc(C2=CCCN(C(=O)CCn3ccnn3)C2)c(F)c2[nH]c(C(=O)N3CCc4n[nH]cc4C3)cc12 [Example I-851]
42 | > 100 | COc1ccncc1-c1cc(C2=CCCN(C(=O)CCn3ccnn3)C2)c(F)c2[nH]c(C(=O)N3CCN(c4nc(Cl)ccc4OC)CC3)cc12 [Example I-491]
43 | < 0.1 | COc1ccncc1-c1cc(C2=CCCN(C(=O)CCn3ccnn3)C2)c(F)c2[nH]c(C(=O)N3CCN(C4CCCCC4)CC3)cc12 [Example I-1149]
44 | < 0.1 | COc1ccccc1-c1cc(C(=O)N2Cc3cnn(C)c3C2)cc2cc(C3=CCCN(C(=O)CCn4ccnn4)C3)n(CC3CC3)c12 [Example I-736]
45 | > 100 | CCc1cnccc1-c1cc(C2=CCCN(C(=O)CCn3ccnn3)C2)c(F)c2[nH]c(C(=O)N3CCN(c4ncccc4OC)CC3)cc12 [Example I-608]
46 | < 0.1 | COc1cc(F)cnc1N1CCN(C(=O)c2cc3c(-c4cccc(O)c4)cc(C4=CCCN(C(=O)CCn5ccnn5)C4)c(F)c3[nH]2)CC1 [Example I-615]
47 | < 0.1 | COc1cc(F)cnc1N1CCN(C(=O)c2cc3c(-c4ccc(C(=O)N(C)C)cc4)cc(C4=CCCN(C(=O)CCn5ccnn5)C4)c(F)c3[nH]2)CC1 [Example I-1165]
48 | 0.1 to 1 | COc1ccccc1-c1cc(C2=CCCN(C(C)=O)C2)cc2[nH]c(C(=O)N(C)C)cc12 [Example I-1091]
49 | > 100 | CCn1ncc2c1CN(C(=O)c1cc3c(-c4cnc(C5CC5)cc4C)cc(C4=CCCN(C(=O)CCn5ccnn5)C4)c(F)c3[nH]1)C2 [Example I-766]
50 | 0.1 to 1 | COc1ccccc1-c1cc(C2=CCCN(C(=O)CCn3ccnn3)C2)c(F)c2[nH]c(C(=O)N3CCN(c4cc5cnn(C)c5cc4C)CC3)cc12 [Example I-925]
51 | 1 to 10 | CCC1CCCCC1c1cc(C2=CCCN(C(=O)CCn3ccnn3)C2)c(F)c2[nH]c(C(=O)N3CCN(c4ncc(F)cc4OC)CC3)cc12 (single isomer, unassigned) [Example I-1174]
52 | < 0.1 | COc1cc(F)c(F)cc1-c1cc(C2=CCCN(C(=O)CCn3ccnn3)C2)c(F)c2[nH]c(C(=O)N3CCN(c4ncccc4OC4CC4)CC3)cc12 [Example I-596]
53 | < 0.1 | CCc1nc(C)ncc1-c1cc(C2=CCCN(C(=O)CCn3ccnn3)C2)c(F)c2[nH]c(C(=O)N3Cc4cnn(CC)c4C3)cc12 [Example I-764]
54 | < 0.1 | COc1ccccc1-c1cc(C2=CCCN(C(=O)CCn3ccnn3)C2)c(F)c2[nH]c(C(=O)N3CCc4cnn(C)c4C3)cc12 [Example I-516]
55 | < 0.1 | COc1cnccc1-c1cc(C2=CCCN(C(=O)CCn3ccnn3)C2)c(F)c2[nH]c(C(=O)N3CCN(C4CC4)CC3)cc12 [Example I-605]
56 | > 100 | CCc1nc(C)ccc1-c1cc(C(=O)N2CCN(c3ccc(F)cc3OC)CC2)cc2cc(C3=CCCN(C(=O)CCn4ccnn4)C3)n(CC3CC3)c12 [Example I-534]
57 | < 0.1 | CCCOc1ncc(C)cc1-c1cc(C2=CCCN(C(=O)CCn3ccnn3)C2)c(F)c2[nH]c(C(=O)N3CCN(c4ncc(F)cc4OC)CC3)cc12 [Example I-654]
